In test [1] the target is T1, p53 Y220C mutant protein (amino acid residues 94-293) (Homo sapiens, UniProt P04637, Y220C).
T1 construct: p53 Y220C mutant protein (amino acid residues 94-293)
As to the kind of experiment: Surface Plasmon Resonance (SPR) assay, p53 Y220C Kd_kinetic. The conditions noted are these: multi-cycle kinetics, 16 or 20 °C, pH 7.5, 1:1 binding model. An outline of the steps:
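Kd from multi-cycle SPR kinetics fitted to a 1:1 model, using 2-fold, 7-point compound series over p53 Y220C (residues 94-293). Flow 30 μL/min, 60 s association, 120 s dissociation, at 16 or 20 °C in 50 mM Tris pH 7.5, 100 mM NaCl, 1 mM DTT, 0.01% Brij35, 0.05% Tween-20, 1% DMSO.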

Another test addresses p53 Y220C (Homo sapiens, UniProt P04637, Y220C). Briefly: Luciferase Reporter Assay, p53 Y220C (NCIH1299 cells with inducible p53 Y220C and p53 response element-luciferase). The format is cell-based. The conditions noted are these: 6 hour compound treatment, read-out: Luc P53 Y220C AC50. An outline of the steps: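 NCI-H1299 cells stably carrying a p53 response element-luciferase reporter and Tet-inducible p53 Y220C were induced with 0.5 ug/mL doxycycline for 24 h, then treated with compound for 6 h. Luminescence was read after One-Glo addition. AC50 was derived relative to 10 uM tool compound as positive control.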
For orientation: Reporter assays use an easily measured gene product as a stand-in for the process of interest.

Test [2] relates to NCIH1299-inducible p53 Y220C cells. As to the kind of experiment: Cell Proliferation Assay (CellTiter-Glo), NCIH1299-inducible p53 Y220C. The format is cell-based. The note with it: Homo sapiens, NCI-H1299, 120 h, 5 days, read-out: CTG H1299 P53 Y220C IC50. An outline of the steps:
(§1)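 Seeded at 250–500 cells/well, then compound-treated for 5 days; the NCIH1299 lines carry Tet-One inducible p53 Y220C or R273H transduced lentivirally. Viability by CellTiter-Glo luminescence after 10 min at room temperature; IC50 calculated.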
(In general: ATP-based viability assays read luminescence as a measure of living cells.)

For a further test, the system named is NUGC3 cells (p53 Y220C). As to the kind of experiment: Cell Proliferation Assay (CellTiter-Glo), NUGC3 p53 Y220C. The format is cell-based. The note with it: Homo sapiens, NUGC-3, 120 h, 5 days, read-out: CTG NUGC3 P53 Y220C IC50. An outline of the steps: as §1

Drawing on patent US20260347353A1, “INDOLIZINE DERIVATIVES FOR TREATING CANCER” (Antares Therapeutics, Inc., priority 2022, published 2026), this text covers Kd, AC50 and IC50 for 16 compounds.

T1 sequence (P04637 94-293, stated change not applied): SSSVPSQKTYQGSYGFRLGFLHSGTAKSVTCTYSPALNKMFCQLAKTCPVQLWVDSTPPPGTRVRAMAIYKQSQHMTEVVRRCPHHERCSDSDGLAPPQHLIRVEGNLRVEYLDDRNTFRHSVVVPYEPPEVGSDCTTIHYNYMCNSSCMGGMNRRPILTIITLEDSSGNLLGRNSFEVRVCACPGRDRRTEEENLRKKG

With `CN1CC[C@@H](Nc2cccn3c(SC(F)(F)F)c(-c4noc(CNC(=O)c5ccc(S(C)(=O)=O)cc5)n4)cc23)[C@@H](F)C1` [Example 42, N-{[3-(8-{[(3S,4R)-3-fluoro-1-methylpiperidin-4-yl]amino}-3-[(trifluoromethyl)sulfanyl]indolizin-2-yl)-1,2,4-oxadiazol-5-yl]methyl}-4-methanesulfonylbenzamide], the Kd (usually the concentration at which binding is half-saturated) in test [1] was below 0.01 µM. The concentration at half-maximal activity (AC50) (commonly the concentration giving half of the maximal activity seen) on p53 Y220C is below 0.75 µM. In addition, the IC50 (in test [2]; with NUGC3 cells (p53 Y220C)) was below 0.75 µM in each case.

For `CN1CC[C@@H](Nc2cccn3c(SC(F)(F)F)c(-c4noc(CNC(=O)COc5ccc(C#N)cc5)n4)cc23)[C@@H](F)C1` [Example 43, 2-(4-cyanophenoxy)-N-{[3-(8-{[(3S,4R)-3-fluoro-1-methylpiperidin-4-yl]amino}-3-[(trifluoromethyl)sulfanyl]indolizin-2-yl)-1,2,4-oxadiazol-5-yl]methyl}acetamide], the Kd in test [1] was in the range of 0.01 to 0.1 µM. Besides, the AC50 at p53 Y220C is 0.75 to 1.5 µM. Moreover, the half-inhibitory concentration (IC50) (in test [2]; in the test on NUGC3 cells (p53 Y220C)) was 0.75 to 1.5 µM in each case.

`CN1CC[C@@H](Nc2cccn3c(SC(F)(F)F)c(-c4noc(CNC(=O)C#CC5(NC(=O)OC(C)(C)C)CC5)n4)cc23)[C@@H](F)C1` [Example 44, tert-butyl N-{1-[2-({[3-(8-{[(3S,4R)-3-fluoro-1-methylpiperidin-4-yl]amino}-3-[(trifluoromethyl)sulfanyl]indolizin-2-yl)-1,2,4-oxadiazol-5-yl]methyl}carbamoyl)eth-1-yn-1-yl]cyclopropyl}carbamate] showed a Kd in test [1] below 0.01 µM. Besides, the concentration at half-maximal activity (AC50) on p53 Y220C is below 0.75 µM. The IC50 (usually the point on the concentration scale where inhibition reaches its midpoint) in test [2] is below 0.75 µM; in the test on NUGC3 cells (p53 Y220C), 0.75 to 1.5 µM.

Take `CN1CC[C@@H](Nc2cccn3c(SC(F)(F)F)c(-c4noc(CNC(=O)C56CC(NC(=O)OC(C)(C)C)(C5)C6)n4)cc23)[C@@H](F)C1` [Example 45, tert-butyl N-[3-({[3-(8-{[(3S,4R)-3-fluoro-1-methylpiperidin-4-yl]amino}-3-[(trifluoromethyl)sulfanyl]indolizin-2-yl)-1,2,4-oxadiazol-5-yl]methyl}carbamoyl)bicyclo[1.1.1]pentan-1-yl]carbamate]: the Kd in test [1] lay in the range of 0.01 to 0.1 µM. For the same compound, at p53 Y220C, the AC50 was at least 3 µM. Moreover, the IC50 was at least 3 µM in test [2] and 1.5 to 3 µM in the test on NUGC3 cells (p53 Y220C).

As to `CN1CC[C@@H](Nc2cccn3c(SC(F)(F)F)c(-c4noc(CNC(=O)C5(c6ccc(F)cc6)CC5)n4)cc23)[C@@H](F)C1` [Example 46, N-{[3-(8-{[(3S,4R)-3-fluoro-1-methylpiperidin-4-yl]amino}-3-[(trifluoromethyl)sulfanyl]indolizin-2-yl)-1,2,4-oxadiazol-5-yl]methyl}-1-(4-fluorophenyl)cyclopropane-1-carboxamide], in test [1], the Kd was 0.1 to 1 µM. At p53 Y220C, the AC50 was at least 3 µM. For the same compound, the IC50 (in test [2]; with NUGC3 cells (p53 Y220C)) was at least 3 µM each time.

As for `CN1CC[C@@H](Nc2cccn3c(SC(F)(F)F)c(-c4noc(CNC(=O)C5(C(F)(F)F)CC5)n4)cc23)[C@@H](F)C1` [Example 47, N-{[3-(8-{[(3S,4R)-3-fluoro-1-methylpiperidin-4-yl]amino}-3-[(trifluoromethyl)sulfanyl]indolizin-2-yl)-1,2,4-oxadiazol-5-yl]methyl}-1-(trifluoromethyl)cyclopropane-1-carboxamide], the Kd in test [1] fell in the range of 0.01 to 0.1 µM. The AC50 on p53 Y220C was at least 3 µM. Also, the IC50 (in test [2]; in the test with NUGC3 cells (p53 Y220C)) was at least 3 µM throughout.

`CN1CC[C@@H](Nc2cccn3c(SC(F)(F)F)c(-c4noc(CNC(=O)C(C)(C)O)n4)cc23)[C@@H](F)C1` [Example 49, N-{[3-(8-{[(3S,4R)-3-fluoro-1-methylpiperidin-4-yl]amino}-3-[(trifluoromethyl)sulfanyl]indolizin-2-yl)-1,2,4-oxadiazol-5-yl]methyl}-2-hydroxy-2-methylpropanamide] yielded a dissociation constant (Kd) in test [1] of 0.01 to 0.1 µM. Besides, the AC50 on p53 Y220C lay in the range of 1.5 to 3 µM. For the same compound, the IC50 was 1.5 to 3 µM in test [2] and at least 3 µM in the test on NUGC3 cells (p53 Y220C).

Consider `C[C@H](NC(=O)C1CC1)c1nc(-c2cc3c(N[C@@H]4CCN(C)C[C@@H]4F)cccn3c2SC(F)(F)F)no1` [Example 52, N-[(1S)-1-[3-(8-{[(3S,4R)-3-fluoro-1-methylpiperidin-4-yl]amino}-3-[(trifluoromethyl)sulfanyl]indolizin-2-yl)-1,2,4-oxadiazol-5-yl]ethyl]cyclopropanecarboxamide], for which the Kd in test [1] lay in the range of 0.01 to 0.1 µM. Moreover, the half-maximal activity concentration (AC50) on p53 Y220C is at least 3 µM. The half-inhibitory concentration (IC50) (in test [2]; in the test on NUGC3 cells (p53 Y220C)) was at least 3 µM throughout.

In the case of `CNC(=O)c1ccc(NCc2nc(-c3cc4c(N[C@@H]5CCN(C)C[C@@H]5F)cccn4c3SC(F)(F)F)no2)nc1` [Example 54, 6-({[3-(8-{[(3S,4R)-3-fluoro-1-methylpiperidin-4-yl]amino}-3-[(trifluoromethyl)sulfanyl]indolizin-2-yl)-1,2,4-oxadiazol-5-yl]methyl}amino)-N-methylpyridine-3-carboxamide], the Kd in test [1] is below 0.01 µM. Besides, on p53 Y220C, the AC50 was below 0.75 µM. For the same compound, the IC50 (in test [2]; in the test on NUGC3 cells (p53 Y220C)) was below 0.75 µM throughout.

Consider `CN1CC[C@@H](Nc2cccn3c(SC(F)(F)F)c(-c4noc(CNC(=O)c5ccc(-c6ccn[nH]6)s5)n4)cc23)[C@@H](F)C1` [Example 56, N-{[3-(8-{[(3S,4R)-3-fluoro-1-methylpiperidin-4-yl]amino}-3-[(trifluoromethyl)sulfanyl]indolizin-2-yl)-1,2,4-oxadiazol-5-yl]methyl}-5-(2H-pyrazol-3-yl)thiophene-2-carboxamide], for which, in test [1], the Kd is 0.01 to 0.1 µM. Further, the AC50 at p53 Y220C fell in the range of 0.75 to 1.5 µM. Moreover, the IC50 (in test [2]; in the test on NUGC3 cells (p53 Y220C)) was below 0.75 µM throughout.

In the case of `CNC(=O)c1ccc(C(=O)NCc2nc(-c3cc4c(N[C@@H]5CCN(C)C[C@@H]5F)cccn4c3SC(F)(F)F)no2)cc1` [Example 57, N1—{[3-(8-{[(3S,4R)-3-fluoro-1-methylpiperidin-4-yl]amino}-3-[(trifluoromethyl)sulfanyl]indolizin-2-yl)-1,2,4-oxadiazol-5-yl]methyl}-N4-methylbenzene-1,4-dicarboxamide], the Kd in test [1] was below 0.01 µM. For the same compound, the half-maximal activity concentration (AC50) at p53 Y220C is below 0.75 µM. The IC50 (in test [2]; in the test with NUGC3 cells (p53 Y220C)) was below 0.75 µM in each case.

The compound `CNC(=O)c1cccc(C(=O)NCc2nc(-c3cc4c(N[C@@H]5CCN(C)C[C@@H]5F)cccn4c3SC(F)(F)F)no2)c1` [Example 58, N1—{[3-(8-{[(3S,4R)-3-fluoro-1-methylpiperidin-4-yl]amino}-3-[(trifluoromethyl)sulfanyl]indolizin-2-yl)-1,2,4-oxadiazol-5-yl]methyl}-N3-methylbenzene-1,3-dicarboxamide] came in with a Kd in test [1] below 0.01 µM. In addition, the AC50 at p53 Y220C is below 0.75 µM. Moreover, the IC50 (in test [2]; with NUGC3 cells (p53 Y220C)) was below 0.75 µM in each case.

For the compound `CC(=O)NCc1nc(-c2cc3c(N[C@@H]4CCN(C)C[C@@H]4F)cccn3c2SC(F)(F)F)no1` [Example 59, N-{[3-(8-{[(3S,4R)-3-fluoro-1-methylpiperidin-4-yl]amino}-3-[(trifluoromethyl)sulfanyl]indolizin-2-yl)-1,2,4-oxadiazol-5-yl]methyl}acetamide], the Kd in test [1] was below 0.01 µM. The AC50 on p53 Y220C was in the range of 0.75 to 1.5 µM. In addition, the IC50 in test [2] is below 0.75 µM; in the test with NUGC3 cells (p53 Y220C), 0.75 to 1.5 µM.

In test [1], `CC(C)C(=O)NCc1nc(-c2cc3c(N[C@@H]4CCN(C)C[C@@H]4F)cccn3c2SC(F)(F)F)no1` [Example 60, N-{[3-(8-{[(3S,4R)-3-fluoro-1-methylpiperidin-4-yl]amino}-3-[(trifluoromethyl)sulfanyl]indolizin-2-yl)-1,2,4-oxadiazol-5-yl]methyl}-2-methylpropanamide] returned a Kd of 0.01 to 0.1 µM. The AC50 on p53 Y220C lay within 1.5 to 3 µM. The IC50 (in test [2]; in the test with NUGC3 cells (p53 Y220C)) was 1.5 to 3 µM throughout.

On to `COC(C)(C)C(=O)NCc1nc(-c2cc3c(N[C@@H]4CCN(C)C[C@@H]4F)cccn3c2SC(F)(F)F)no1` [Example 61, N-{[3-(8-{[(3S,4R)-3-fluoro-1-methylpiperidin-4-yl]amino}-3-[(trifluoromethyl)sulfanyl]indolizin-2-yl)-1,2,4-oxadiazol-5-yl]methyl}-2-methoxy-2-methylpropanamide], for which the Kd in test [1] is 0.01 to 0.1 µM. In addition, on p53 Y220C, the AC50 was at least 3 µM. Besides, the concentration for half-maximal inhibition (IC50) (in test [2]; in the test with NUGC3 cells (p53 Y220C)) was at least 3 µM each time.

In test [1], `CN1CC[C@@H](Nc2cccn3c(SC(F)(F)F)c(-c4noc(CNC(=O)[C@H]5C[C@@H](O)C5)n4)cc23)[C@@H](F)C1` [Example 62, (1s,3s)-N-{[3-(8-{[(3S,4R)-3-fluoro-1-methylpiperidin-4-yl]amino}-3-[(trifluoromethyl)sulfanyl]indolizin-2-yl)-1,2,4-oxadiazol-5-yl]methyl}-3-hydroxycyclobutane-1-carboxamide] registered a Kd below 0.01 µM. Further, the AC50 on p53 Y220C was 1.5 to 3 µM. The IC50 in test [2] fell in the range of 0.75 to 1.5 µM; in the test on NUGC3 cells (p53 Y220C), 1.5 to 3 µM.
